Test results reported in patent publication US9181234B2, “Antibacterial compounds” (priority 2010, dated 2015).
≈ marks a conversion by molar mass, not a printed value.

Experiments:
[1] = system: Streptococcus pyogenes (Isolate ID ATCC 51339); assay: Antibacterial activity, MIC, S. pyogenes; assay type: cell-based; settings: broth microdilution or agar dilution; for MIC: Streptococcus pyogenes, ATCC51339, Gram positive strain
Procedure, shortened: (§1)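 MICs determined by broth microdilution or agar dilution according to CLSI guidelines (M7-A7).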

[2] = system: Enterococcus faecalis (Isolate ID ATCC 29212); assay: Antibacterial activity, MIC, E. faecalis; assay type: cell-based; settings: Gram positive strain, broth microdilution or agar dilution; for MIC: Enterococcus faecalis, ATCC29212
Procedure, shortened: as §1

physchem = settings: for solubility at 24 h: pH 7.4, aqueous buffer, kinetic from dmso stock
Procedure, shortened: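 DMSO doubling dilutions were diluted twenty-fold into 100 mM citrate (pH 4), PBS (pH 7.4) or carbonate-bicarbonate (pH 9). After 24 h equilibration at room temperature, absorbance was read at 620 nm. The reported value is the highest concentration without measurable precipitate.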

[3] = system: Haemophilus influenzae (Isolate ID ATCC 49247); assay: Antibacterial activity, MIC, H. influenzae; assay type: cell-based; settings: Gram negative strain, broth microdilution or agar dilution; for MIC: Haemophilus influenzae, ATCC49247
Procedure, shortened: as §1

[4] = system: Staphylococcus aureus (Isolate ID ATCC 29213); assay: Antibacterial activity, MIC, S. aureus; assay type: cell-based; settings: broth microdilution or agar dilution; for MIC: Staphylococcus aureus, ATCC29213, Gram positive strain
Procedure, shortened: as §1

Structure (SMILES) | MIC [1] [µg/mL] | MIC [2] [µg/mL] | solubility at 24 h (physchem; Solubility (pH 7.4)) [µg/mL] | solubility at 24 h (physchem; Solubility Range) [µg/mL] | MIC [3] [µg/mL] | MIC [4] [µg/mL] | solubility at 24 h (physchem; Max Solubility) [µg/mL] | solubility at 24 h (physchem; Solubility Range (maximum solubility)) [µg/mL] | Antibacterial Activity (MIC) S. pyogenes (ATCC 51339) ([1]; Gram positive strain) | Antibacterial Activity (MIC) E. faecalis (ATCC 29212) [2] | Max Solubility (physchem; pH 4) [µg/mL] | Solubility (pH 7.4) (physchem; pH 7.4) [μg/mL] | Antibacterial Activity (MIC) H. influenzae (ATCC 49247) [3] | Antibacterial Activity (MIC) S. aureus (ATCC 29213) ([4]; Gram positive strain)
CCNC(=O)Nc1nc2cc(-c3cnc(N4CCC(C#N)(C(=O)OCC)CC4)nc3)cc(-c3ccccn3)c2s1 [Compound 174] | 0.25 to 1 (≈ 0.449 to 1.8 µM) | 0.25 to 1 (≈ 0.449 to 1.8 µM) | 3.12 (≈ 5.61 µM) | < 12.5 | > 16 | > 16 | – | – | – | – | – | – | – | –
CCNC(=O)Nc1nc2cc(-c3cnc(N4CCC(C(=O)OCC)(S(C)(=O)=O)CC4)nc3)cc(-c3ccccn3)c2s1 [Compound 176] | 0.25 to 1 (≈ 0.41 to 1.64 µM) | > 16 | 100 (≈ 164 µM) | 12.5 to 400 (≈ 20.5 to 656 µM) | > 16 | > 16 | – | – | – | – | – | – | – | –
CCNC(=O)Nc1nc2cc(-c3cnc(N4CCC(Cc5ccccc5)(C(=O)OCC)CC4)nc3)cc(-c3ccccn3)c2s1 [Compound 177] | > 16 | > 16 | 12.5 (≈ 20.1 µM) | 12.5 to 400 (≈ 20.1 to 643 µM) | > 16 | > 16 | – | – | – | – | – | – | – | –
CCNC(=O)Nc1nc2cc(-c3cnc(N4CCC(C)(C(=O)OCC)CC4)nc3)cc(C3CCN(C(C)=O)CC3)c2s1 [Compound 178] | – | – | – | – | – | – | – | – | C (“C” activity >1.0 μg/mL-16 μg/mL) | D (“D” activity >16 μg/mL) | 6.25 | 3.125 | D (“D” activity >16 μg/mL) | D (“D” activity >16 μg/mL)
CCNC(=O)Nc1nc2cc(-c3cnc(N4CCC(C(=O)OC)(C(F)(F)F)C4)nc3)cc(-c3ccccn3)c2s1 (centres unmarked) [Compound 180] | 0.25 to 1 (≈ 0.437 to 1.75 µM) | 0.25 to 1 (≈ 0.437 to 1.75 µM) | 6.25 (≈ 10.9 µM) | < 12.5 | > 16 | 1 to 16 (≈ 1.75 to 28 µM) | – | – | – | – | – | – | – | –
CCNC(=O)Nc1nc2cc(-c3cncc(N4CCC(C)(C(=O)O)CC4)c3)cc(-c3ccccn3)c2s1 [Compound 181] | ≤ 0.25 | ≤ 0.25 | ≥ 800 | > 800 | 1 to 16 (≈ 1.94 to 31 µM) | 0.25 to 1 (≈ 0.484 to 1.94 µM) | ≥ 800 | > 800 | – | – | – | – | – | –
CCNC(=O)Nc1nc2cc(-c3ccc(C4=NOC(C)(C(=O)O)C4)nc3)cc(-c3ccccn3)c2s1 (centres unmarked) [Compound 183] | ≤ 0.25 | 0.25 to 1 (≈ 0.497 to 1.99 µM) | 100 (≈ 199 µM) | 12.5 to 400 (≈ 24.9 to 796 µM) | 1 to 16 (≈ 1.99 to 31.8 µM) | 1 to 16 (≈ 1.99 to 31.8 µM) | – | – | – | – | – | – | – | –
CCNC(=O)Nc1nc2cc(-c3ccc(C4=NOC(C)(C(=O)OCC)C4)nc3)cc(-c3ccccn3)c2s1 (centres unmarked) [Compound 184] | ≤ 0.25 | ≤ 0.25 | 6.25 (≈ 11.8 µM) | < 12.5 | 1 to 16 (≈ 1.88 to 30.2 µM) | ≤ 0.25 | – | – | – | – | – | – | – | –
CCNC(=O)Nc1nc2cc(-c3cnc(N4CCC(C(N)=O)(c5ccccc5)CC4)nc3)cc(-c3ccccn3)c2s1 [Compound 185] | 1 to 16 (≈ 1.73 to 27.6 µM) | ≤ 0.25 | 6.25 (≈ 10.8 µM) | < 12.5 | > 16 | 0.25 to 1 (≈ 0.432 to 1.73 µM) | – | – | – | – | – | – | – | –

Continued, in another order:

MIC [1] [µg/mL] | MIC [2] [µg/mL] | solubility at 24 h (physchem; Solubility (pH 7.4)) [µg/mL] | solubility at 24 h (physchem; Solubility Range) [µg/mL] | MIC [3] [µg/mL] | MIC [4] [µg/mL] | solubility at 24 h (physchem; Max Solubility) [µg/mL] | solubility at 24 h (physchem; Solubility Range (maximum solubility)) [µg/mL] | Structure (SMILES) | Antibacterial Activity (MIC) S. pyogenes (ATCC 51339) ([1]; Gram positive strain) | Antibacterial Activity (MIC) E. faecalis (ATCC 29212) [2] | Max Solubility (physchem; pH 4) [µg/mL] | Solubility (pH 7.4) (physchem; pH 7.4) [μg/mL] | Antibacterial Activity (MIC) H. influenzae (ATCC 49247) [3] | Antibacterial Activity (MIC) S. aureus (ATCC 29213) ([4]; Gram positive strain)
≤ 0.25 | 0.25 to 1 (≈ 0.458 to 1.83 µM) | 3.12 (≈ 5.73 µM) | < 12.5 | 1 to 16 (≈ 1.83 to 29.3 µM) | > 16 | – | – | CCNC(=O)Nc1nc2cc(-c3cnc(N4CCC(C)(C(=O)OCC)CC4)nc3)cc(-c3ccccn3)c2s1 [Compound 171] | – | – | – | – | – | –
≤ 0.25 | ≤ 0.25 | 12.5 (≈ 22.8 µM) | 12.5 to 400 (≈ 22.8 to 730 µM) | 1 to 16 (≈ 1.83 to 29.2 µM) | 1 to 16 (≈ 1.83 to 29.2 µM) | – | – | CCNC(=O)Nc1nc2cc(-c3cnc(N4CCC(O)C(C)(C(=O)OC)C4)nc3)cc(-c3ccccn3)c2s1 (centres unmarked) [Compound 172] | – | – | – | – | – | –
≤ 0.25 | ≤ 0.25 | 50 (≈ 93.7 µM) | 12.5 to 400 (≈ 23.4 to 750 µM) | 1 to 16 (≈ 1.87 to 30 µM) | 0.25 to 1 (≈ 0.469 to 1.87 µM) | – | – | CCNC(=O)Nc1nc2cc(-c3cnc(N4CCC(O)(C(=O)OC)CC4)nc3)cc(-c3ccccn3)c2s1 [Compound 173] | – | – | – | – | – | –
≤ 0.25 | ≤ 0.25 | 25 (≈ 45.7 µM) | 12.5 to 400 (≈ 22.8 to 730 µM) | 1 to 16 (≈ 1.83 to 29.2 µM) | 0.25 to 1 (≈ 0.457 to 1.83 µM) | – | – | CCNC(=O)Nc1nc2cc(-c3cnc(N4CCC(OC)(C(=O)OC)CC4)nc3)cc(-c3ccccn3)c2s1 [Compound 175] | – | – | – | – | – | –
